According to patent US20180340001A1, “Probes for 18F Positron Emission Tomography Imaging” (The Texas A&M University System, priority 2017, published 2018):

Key:
[1] = In vitro stability of [18F]-1 in 1×PBS by radio-HPLC; type: physicochemical; details: incubation time 3 hours
Procedure: (§1) The stability of [^18F]-1 was first investigated in phosphate buffer solution (1×PBS). […] The stability of [^18F]-1 was further evaluated in a murine model. The probe [^18F]-1 (0.1 mCi) was injected into female nude mice and static microPET scans were obtained at 3 hours after the injection.
After HPLC purification, [^18F]-1 was re-injected into HPLC for a radio profile standard. Then, the probe was added with 10×PBS to reconstruct the solution to IX PBS and 0.1 N NaOH to adjust pH to 7, respectively. After 1 hour and 3 hours incubation, a fraction of [^18F]-1 was injected into HPLC. The radio purity was calculated based on the integration of the product peak and other minor peaks.

[2] = MicroPET/CT imaging, in vivo stability in nude mice; details: for free [18F]-fluoride signal / release in vivo: murine model, up to 3 hours post-injection
Procedure: as §1
MicroPET imaging were acquired at 3 h post injection. For PET image acquiring, a female nude mouse was injected with 0.1 mCi of [^18F]-1 via the tail vein. At 3 hour post injection, the mouse was anesthetized using isoflurane (2% in oxygen), then placed into imaging chambers equipped with a heated coil to maintain body temperature and gas anesthesia. The static microPET acquisitions were then achieved and reconstructed for analysis.

[3] = pH 7.5

| Structure (SMILES) | radiochemical purity after incubation [1] [%] | localization in microPET/CT images ([2]; female nude mice, 0.1 mCi via tail vein, static scan 3 h after injection) | bone uptake ([2]; female nude mice, 0.1 mCi, 3 h post-injection) | route of clearance ([2]; female nude mice, 0.1 mCi, microPET/CT 3 h after injection) | free [18F]-fluoride signal / release in vivo [2] | free [18F]-fluoride signal / release in vivo ([2]; listed as 18F—PFS-carbene) | free [18F]-fluoride signal / release in vivo ([2]; listed as IMe-PF5) | free fluoride signal / release of free fluoride [3] | hydrolytic stability (in words) [3] | pseudo-first order rate constant (kobs) of hydrolysis [3] [min⁻¹] |
| --- | --- | --- | --- | --- | --- | --- | --- | --- | --- | --- |
| Cn1cc[n+](C)c1[P-](F)(F)(F)(F)F [[^18F]-1] | > 98 | obvious localization in the bladder | No bone uptake was observed | cleared through the urinary track | insignificant | not observed |  |  |  |  |
| Cn1cc[n+](C)c1[P-](F)(F)(F)(F)F [Compound 1, IMe-PF5] |  |  |  |  |  |  | not observed | not observed | highly water stable |  |
| Cn1cc[n+](C)c1[P-](F)(F)(F)(F)c1ccccc1 [Compound 2, (NHC)PF4Ph] |  |  |  |  |  |  |  |  | highly water stable | 2.3e-05 |
